According to US20230382920A1, “SHMT Inhibitors” (The Trustees of Princeton University, priority 2020, published 2023):

Assays:
[1] = system: HCT116; assay: HCT116 growth inhibition assay; assay type: cell-based; details: without formate
Protocol: (§1) Example 5. HCT116 Growth Inhibition and Formate Rescue Assays
(§2) 3,000 Cells were plated in each well of a 96-well plate with 80 μL of DMEM media supplemented with 10% dFBS, and incubated for 24 hours. Drugs with or without sodium formate (1 mM) were then added to each well to a final volume of 100 μL. Cell growth was measured as fluorescence intensity by resazurin after four days. In short, resazurin was added to each well to a final concentration of 10 μg·mL^−1. After incubation for one hour, fluorescence was measured by a Synergy HT plate reader (BioTek Instruments).

[2] = Mouse liver microsome assay (metabolic stability); assay type: in vitro ADME; details: mouse liver microsomes; for half-life at 2 µM: in vitro half-life; for microsomal CLint at 2 µM: in vitro intrinsic clearance, read-out: Relative Clint
Protocol: Example 6. Mouse Liver Microsome Assay
Metabolic stability of several compounds in mouse liver microsomes was tested. Briefly, a master solution was prepared according to Table 31.
Two separate experiments were performed: an experiment with cofactors and an experiment without cofactors. In the experiment with cofactors 40 μL of 10 mM NADPH and 40 μL of 20 mM UDPGA were added to the incubations. The final concentrations of microsomes, NADPH and UDPGA were 0.5 mg/mL, 1 mM and 2 mM, respectively. In the experiment without cofactors 10 μL of 20 mg/mL liver microsomes and 80 μL of ultra-pure H2O were added to the incubations. The final concentration of microsomes was 0.5 mg/mL. The mixture was pre-warmed at 37° C. for 5 minutes.
The reaction was started with the addition of 4 μL of 200 μM control compound or test compound solutions. Verapamil was used as positive control in this study. The final concentration of test compound was 2 μM and the final concentration of control compound was 1 μM. The incubation solution was incubated in water bath at 37° C.
Aliquots of 50 μL were taken from the reaction solution at 0.5, 5, 15, 30, 45 and 60 minutes. The reaction was stopped by the addition of five volumes of cold acetonitrile with IS (100 nM alprazolam, 200 nM caffeine and 100 nM tolbutamide). Samples were centrifuged at 3,220 g for 40 minutes. Aliquot of 100 μL of the supernatant was mixed with 100 μL of ultra-pure H2O and then subject to LC-MS/MS analysis.
All calculations were carried out using Microsoft Excel. Peak areas were determined from extracted ion chromatograms. The slope value, k, was determined by linear regression of the natural logarithm of the remaining percentage of the parent drug versus incubation time curve. The in vitro half-life (in vitro t½) was determined from the slope value:
Conversion of the in vitro t1/2(min) into the in vitro intrinsic clearance (in vitro CLint, in μL/min/mg protein) was done using the following equation (mean of duplicate determinations): […]

[3] = system: HCT116; assay: HCT116 formate rescue assay (with sodium formate 1 mM); assay type: cell-based; details: HCT116 growth
Protocol: as §1, §2

Compound: Cc1n[nH]c2c1C(c1cc(C#C[C@H]3C[C@H](C(C)(C)O)C3)cc(CO)c1)(C(C)C)C(C#N)=C(N)O2 (stereo partly drawn) [KDG-0258]
- IC50 [1]: A″
- half-life at 2 µM [2]: < 5 min
- microsomal CLint at 2 µM [2]: > 250 µL/min/mg

Compound: Cc1n[nH]c2c1C(c1cc(C#C[C@H]3C[C@H](COC(N)=O)C3)cc(C(C)(C)O)c1)(C(C)C)C(C#N)=C(N)O2 (stereo partly drawn) [KDG-0262]
- IC50 [1]: C″
- half-life at 2 µM [2]: < 5 min

Compound: Cc1n[nH]c2c1C(c1cc(C#C[C@H]3C[C@H](C(=O)N(C)C)C3)cc(CO)c1)(C(C)C)C(C#N)=C(N)O2 (stereo partly drawn) [KDG-0265]
- IC50 [1]: C″
- half-life at 2 µM [2]: 5 to 10 min

Compound: Cc1n[nH]c2c1C(c1cc(C#C[C@H]3CC[C@@](C)(O)CC3)cc(CO)c1)(C(C)C)C(C#N)=C(N)O2 (stereo partly drawn) [KDG-0270]
- IC50 [1]: B″
- half-life at 2 µM [2]: < 5 min

Compound: Cc1n[nH]c2c1C(c1cc(C#CC3CCOCC3)cc(CO)c1)(C(C)C)C(C#N)=C(N)O2 (stereo not drawn) [KDG-0273]
- IC50 [1]: B″
- half-life at 2 µM [2]: < 5 min

Compound: Cc1n[nH]c2c1C(c1cc(C#CC3(C)CN(C(=O)OC(C)(C)C)C3)cc(CO)c1)(C(C)C)C(C#N)=C(N)O2 (stereo not drawn) [KDG-0300]
- half-life at 2 µM [2]: 5 to 10 min
- microsomal CLint at 2 µM [2]: > 250 µL/min/mg

Compound: Cc1n[nH]c2c1C(c1cc(C#CC3CN(C(=O)OC(C)(C)C)C3)cc(CF)c1)(C(C)C)C(C#N)=C(N)O2 (stereo not drawn) [KDG-0345]
- IC50 [1]: A″
- half-life at 2 µM [2]: 5 to 10 min
- microsomal CLint at 2 µM [2]: 100 to 250 µL/min/mg

Compound: Cc1n[nH]c2c1C(c1cc(C#C[C@H]3C[C@H](NC(=O)OC(C)(C)C)C3)cc(CO)c1)(C(C)C)C(C#N)=C(N)O2 (stereo partly drawn) [KDG-0385, tert-butyl N-[(1r,3r)-3-[2-(3-[6-amino-5-cyano-4-isopropyl-3-methyl-1H-pyrano[2,3-c]pyrazol-4-yl]-5-(hydroxymethyl)phenyl)ethynyl]cyclobutyl]carbamate]
- IC50 [1]: B″

Compound: Cc1n[nH]c2c1C(c1cc(C#C[C@H]3C[C@](C)(NC(=O)OC(C)(C)C)C3)cc(CO)c1)(C(C)C)C(C#N)=C(N)O2 (stereo partly drawn) [KDG-0387]
- IC50 [1]: B″

Compound: Cc1n[nH]c2c1C(c1cc(C#C[C@H]3C[C@@H](NC(=O)OC(C)(C)C)C3)cc(CO)c1)(C(C)C)C(C#N)=C(N)O2 (stereo partly drawn) [KDG-0388-0pk2, tert-butyl N-[(1s,3s)-3-(2-[3-[(4R)-6-amino-5-cyano-4-isopropyl-3-methyl-1H-pyrano[2,3-c]pyrazol-4-yl]-5-(hydroxymethyl)phenyl]ethynyl)cyclobutyl]carbamate]
- IC50 [1]: A″
- IC50 [3]: > 5000 nM

Compound: Cc1n[nH]c2c1[C@](c1cc(C#C[C@H]3C[C@@H](NC(=O)OC(C)(C)C)C3)cc(CO)c1)(C(C)C)C(C#N)=C(N)O2 [KDG-0388-Opk1, tert-butyl N-[(1s,3s)-3-(2-[3-[(4S)-6-amino-5-cyano-4-isopropyl-3-methyl-1H-pyrano[2,3-c]pyrazol-4-yl]-5-(hydroxymethyl)phenyl]ethynyl)cyclobutyl]carbamate]
- IC50 [1]: D″
- IC50 ([3]; Homo sapiens, HCT-116, 96 h): < 100 nM

Compound: Cc1n[nH]c2c1C(c1cc(C#C[C@H]3C[C@H](NC(=O)OC(C)(C)C)C3)cc(CF)c1)(C(C)C)C(C#N)=C(N)O2 (stereo partly drawn) [KDG-0390]
- IC50 [1]: B″

Compound: Cc1n[nH]c2c1C(c1cc(C#C[C@H]3C[C@H](C(=O)OC(C)(C)C)C3)cc(CO)c1)(C(C)C)C(C#N)=C(N)O2 (stereo partly drawn) [KDG-0393]
- half-life at 2 µM [2]: < 5 min

Compound: Cc1n[nH]c2c1C(c1cc(C#C[C@H]3C[C@@H](CNC(=O)OC(C)(C)C)C3)cc(CO)c1)(C(C)C)C(C#N)=C(N)O2 (stereo partly drawn) [KDG-0395-100]
- IC50 [1]: B″

Compound: Cc1n[nH]c2c1C(c1cc(C#C[C@H]3C[C@H](CNC(=O)OC(C)(C)C)C3)cc(CO)c1)(C(C)C)C(C#N)=C(N)O2 (stereo partly drawn) [KDG-0395]
- IC50 [1]: B″

Compound: CCC(C)(C)OC(=O)N1CC(C#Cc2cc(CO)cc(C3(C(C)C)C(C#N)=C(N)Oc4[nH]nc(C)c43)c2)C1 (stereo not drawn) [KDG-0411]
- IC50 [1]: B″

Compound: Cc1n[nH]c2c1C(c1cc(C#CC3CN(C(=O)OC(C)C)C3)cc(CO)c1)(C(C)C)C(C#N)=C(N)O2 (stereo not drawn) [KDG-0416]
- IC50 [1]: A″

Compound: COCC(C)(C)OC(=O)N1CC(C#Cc2cc(CO)cc(C3(C(C)C)C(C#N)=C(N)Oc4[nH]nc(C)c43)c2)C1 (stereo not drawn) [KDG-0418]
- IC50 [1]: B″

Compound: Cc1n[nH]c2c1C(c1cc(C#C[C@@H]3CC[C@@H]3CNC(=O)OC(C)(C)C)cc(CO)c1)(C(C)C)C(C#N)=C(N)O2 (stereo partly drawn) [KDG-0490]
- IC50 [1]: B″
- half-life at 2 µM [2]: < 5 min

Compound: Cc1n[nH]c2c1C(c1cc(C#C[C@H]3CC[C@@H](NC(=O)OC(C)(C)C)C3)cc(CO)c1)(C(C)C)C(C#N)=C(N)O2 (stereo partly drawn) [KDG-0505]
- IC50 [1]: A″
- half-life at 2 µM [2]: < 5 min

Compound: Cc1n[nH]c2c1C(c1cc(C#C[C@H]3CC[C@H](NC(=O)OC(C)(C)C)C3)cc(CO)c1)(C(C)C)C(C#N)=C(N)O2 (stereo partly drawn) [KDG-0506]
- IC50 [1]: B″
- half-life at 2 µM [2]: 5 to 10 min

Compound: Cc1nnc(N[C@H]2CC[C@@H](C#Cc3cc(CO)cc(C4(C(C)C)C(C#N)=C(N)Oc5[nH]nc(C)c54)c3)CC2)o1 (stereo partly drawn) [KDG-0516]
- IC50 [1]: C″

Compound: Cc1nnc(N[C@H]2CC[C@H](C#Cc3cc(CO)cc(C4(C(C)C)C(C#N)=C(N)Oc5[nH]nc(C)c54)c3)CC2)o1 (stereo partly drawn) [KDG-0518]
- IC50 [1]: C″

Compound: Cc1n[nH]c2c1C(c1cc(C#C[C@H]3C[C@@H](NC(=O)OC(C)C)C3)cc(CO)c1)(C(C)C)C(C#N)=C(N)O2 (stereo partly drawn) [KDG-0520]
- IC50 [1]: A″

Compound: Cc1n[nH]c2c1C(c1cc(C#C[C@H]3C[C@@H](NC(=O)OCc4ccccc4)C3)cc(CO)c1)(C(C)C)C(C#N)=C(N)O2 (stereo partly drawn) [KDG-0521]
- IC50 [1]: A″

Compound: COC(=O)N[C@H]1C[C@H](C#Cc2cc(CO)cc(C3(C(C)C)C(C#N)=C(N)Oc4[nH]nc(C)c43)c2)C1 (stereo partly drawn) [KDG-0522-100]
- IC50 [1]: B″

Compound: COC(=O)N[C@H]1C[C@@H](C#Cc2cc(CO)cc(C3(C(C)C)C(C#N)=C(N)Oc4[nH]nc(C)c43)c2)C1 (stereo partly drawn) [KDG-0522]
- IC50 [1]: B″

Compound: Cc1n[nH]c2c1C(c1cc(C#C[C@H]3C[C@@H](NC(=O)NC(C)(C)C)C3)cc(CO)c1)(C(C)C)C(C#N)=C(N)O2 (stereo partly drawn) [KDG-0523]
- IC50 [1]: B″

Compound: Cc1n[nH]c2c1C(c1cc(C#C[C@H]3C[C@@H](NC(=O)OCC(C)(C)C)C3)cc(CO)c1)(C(C)C)C(C#N)=C(N)O2 (stereo partly drawn) [KDG-0524]
- IC50 [1]: B″

Compound: Cc1n[nH]c2c1C(c1cc(C#C[C@H]3C[C@@H](NC(=O)C(C)(C)C)C3)cc(CO)c1)(C(C)C)C(C#N)=C(N)O2 (stereo partly drawn) [KDG-0526]
- IC50 [1]: B″

Compound: Cc1n[nH]c2c1C(c1cc(C#C[C@H]3C[C@@H](NC(=O)CC(C)(C)C)C3)cc(CO)c1)(C(C)C)C(C#N)=C(N)O2 (stereo partly drawn) [KDG-0527]
- IC50 [1]: B″

Compound: Cc1n[nH]c2c1C(c1cc(C#C[C@H]3C[C@@H](NCC(=O)N(C)C)C3)cc(CO)c1)(C(C)C)C(C#N)=C(N)O2 (stereo partly drawn) [KDG-0530]
- IC50 [1]: D″

Compound: Cc1n[nH]c2c1C(c1cc(C#N)cc(C#CC3CN(C(=O)OC(C)(C)C)C3)c1)(C(C)C)C(C#N)=C(N)O2 (stereo not drawn) [KDG-0543]
- IC50 [1]: B″
- half-life at 2 µM [2]: 10 to 20 min

Compound: Cc1n[nH]c2c1C(c1cc(C#CC3CN(C(=O)CN(C)C)C3)cc(CO)c1)(C(C)C)C(C#N)=C(N)O2 (stereo not drawn) [KDG-0547]
- IC50 [1]: D″

Compound: Cc1n[nH]c2c1C(c1cc(C#C[C@H]3C[C@@H](NC(=O)CN(C)C)C3)cc(CO)c1)(C(C)C)C(C#N)=C(N)O2 (stereo partly drawn) [KDG-0554]
- IC50 [1]: C″

Compound: Cc1n[nH]c2c1C(c1cc(C#C[C@H]3C[C@H](NC(=O)CN(C)C)C3)cc(CO)c1)(C(C)C)C(C#N)=C(N)O2 (stereo partly drawn) [KDG-0555]
- IC50 [1]: C″

Compound: Cc1n[nH]c2c1C(c1cc(C#CC34CC(C(=O)N(C)C)(C3)C4)cc(CO)c1)(C(C)C)C(C#N)=C(N)O2 (stereo not drawn) [KDG-0558]
- IC50 [1]: C″

Compound: Cc1nnc(C23CC(C#Cc4cc(CO)cc(C5(C(C)C)C(C#N)=C(N)Oc6[nH]nc(C)c65)c4)(C2)C3)o1 (stereo not drawn) [KDG-0573]
- IC50 [1]: B″

Compound: Cc1n[nH]c2c1C(c1cc(C#C[C@H]3C[C@@H](NC(=O)OC(C)(C)C)C3)cc(C(F)(F)F)c1)(C(C)C)C(C#N)=C(N)O2 (stereo partly drawn) [KDG-0574]
- IC50 [1]: B″
